Consider one substance from PMC7346179, “Fe Porphyrin-Based SOD Mimic and Redox-Active Compound, (OH)FeTnHex-2-PyP^4+, in a Rodent Ischemic Stroke (MCAO) Model: Efficacy and Pharmacokinetics as Compared to Its Mn Analogue, (H2O)MnTnHex-2-PyP^5+” (Antioxidants, 2020).

The nature of data set [1]: 3-day PK study in healthy mice. It counts as in vivo. As to conditions: for liver level: 6 h after last injection. The procedure:
Samples were prepared as described in [10] with modifications to accommodate the small tissue sizes and enhance the detection sensitivity. Quantitative liquid chromatography electrospray-ionization tandem mass spectrometry (LCMS/MS) analysis was performed on a Shimadzu 20A series HPLC (LC)—Applied Biosystems/MDS Sciex API 3200 QTrap or API 4000 QTrap tandem-mass spectrometer (MS/MS) as described earlier. The use of heptafluorobutyric acid (HFBA) mobile phase modifier as an ion-pairing agent increases the overall lipophilicity and volatility, which increases the retention and ionization efficiency of the analytes, affording an abundance of HFBA-associated ions. […] Since oxygen atoms are buried within the porphyrin cavity and thus not easily solvated, these compounds maintain similar redox properties and lipophilicity as their parent hexyl analogs, which makes them co-elute from the HPLC column and thus can be used as internal standards. (OH)FeTnBuOE-2-PyP^4+ was prepared as described for other Fe(III) N-alkylpyridylporphyrins and analogous (H2O)MnTnBuOE-2-PyP^5+ [13, 16]. The solvents employed were: A = 95:5 H2O:MeCN (0.1% HFBA); B = MeCN (0.1% HFBA). […] With the chosen solvent system, all four atropoisomers collapsed into a single peak, enhancing the sensitivity of the method to as low as 0.5 nM (nanomoles per L of tissue homogenate). Analyses were performed using a Phenomenex Luna C18 guard cartridge (ID × L, 2 × 4 mm) only. […] Their structures are also shown. Calibration samples in the 1–300 nM or 0.1–30 μM range (depending on the expected levels of MP) were prepared by adding known amounts of serially diluted pure standards into the plasma or homogenates of related tissues. The response was calculated as the ratio between the standard peak area and the internal standard peak area.
The study was designed to follow the dosing regime in a 3-day mouse MCAO efficacy study. […] Three mice were used per compound in each study. Mice were sacrificed 6 h after the last injection at day 3 and blood and tissues (liver and brain) collected. Blood was centrifuged at 2500 rpm for 10 min and plasma was harvested. Plasma and tissues were analyzed on porphyrin content by LCMS/MS.

A further data set deals with mouse MCAO stroke model. In words: 3-day mouse MCAO efficacy study. It is filed as in vivo, mice. The procedure:
We performed a mouse MCAO study to define a dose of FeHex for a larger rat MCAO study. The 81 C57Bl/6J mice (8–10 weeks old) were subjected to 90 min of MCAO right hemisphere occlusion. Mice were fasted overnight before injury. They were under isoflurane anesthesia during ischemia, and the pericranial temperature was automatically controlled at 37 °C using a surface heating and cooling system. Ischemia was made through a small window on the left temporal bone, and the main trunk of the middle cerebral artery was transiently tied with a fine silk suture for 90 min. Muscle and skin layers were closed after ischemia/reperfusion. Mice were allowed to awake and survive for 3 days. […] Mice were sacrificed under deep anesthesia at 3 days post-ischemia/reperfusion. The brain was quickly frozen in −20 °C 2-methybutane and stored in the freezer for histological analysis. Liver and brain were taken for LCMS/MS analysis of the levels of FeHex. Body weight, rotarod performance, and Corner test were assessed before and 3 days after injury. Neurological deficit (neuroscore) and infarct volume were evaluated at 3 days after injury.
The rotarod test was performed on the day before surgery and 3 days after ischemia/reperfusion. Three trials were performed with a 15-min intra-trial rest. Mice were placed on the rod and then the machine was started. The speed was accelerated from 4 turns/min to 40 turns per min. The latency to fall from the rod was automatically recorded. The data are presented in % and are calculated as [(reading after injury)/(reading before surgery-baseline reading)] × 100. Neurological deficit was assessed based on the neuroscore system we previously used that includes the general status and motor and sensory functions. For the corner test, two clean boards were placed in “V” fashion at an angle of 30° relative to the walking axes and mice were left to walk in towards the apex of the “V”. Mice usually make left turns more frequently when injury is severe enough. The left turn was calculated from the number of left (L) turn/total turns (L + Right turn). Normal animals would have as many left as right turns (50% = normal). When all turns are to the left, the value at y-axis is 100%, the most severe score. Body weight loss is expressed as a difference in body weight at 3 days post-stroke minus body weight on the surgery day.

In data set [2] the test system is mice. As to conditions: mouse, in vivo, cited from earlier work.
For data set [3], the system named is mice. The following applies: cited from earlier work.
Where [4] appears, read: SC and IV 0.5 mg/kg twice daily 3 days.
Setting [5] is: 0.225 mg/kg IV twice daily 3 days.

For “monohydroxo Fe(III) meso-tetrakis(N-n-hexylpyridinium-2yl)porphyrin [FeHex]”, the liver level in data set [1] (IV 0.5 mg/kg twice daily 3 days) came to 290 nM. The same substance gave a liver level in data set [1] (SC 0.5 mg/kg twice daily 3 days) of 126 nM. In data set [1] (setting [4]), the “liver levels relative to MnHex” value is “much lower levels” and the “plasma levels relative to MnHex” value is “Higher levels”. In the data set with mouse MCAO stroke model (setting [5]), the neuroscore result is “improved”; the “p, Corner test vs vehicle” value is 0.09; the “p, body weight change vs vehicle” value is 0.0347; the “p, infarct volume vs vehicle” value was 0.48. Further, in the data set on mouse MCAO stroke model (setting [5]), the “p, neuroscore vs vehicle” value is given as 0.047 and the “p, rotarod vs vehicle” value is recorded as 0.59. The body weights entry in the data set with mouse MCAO stroke model (0.225 mg/kg IV twice daily 3 days, from 90 min post ischemia/reperfusion) is on record as “improved”. The “infarct volume relative to vehicle” value with mouse MCAO stroke model (0.05, 0.225 and 1 mg/kg IV twice daily 3 days) was “No significant change”. For the same substance, the blood pressure drop entry with mice [2] (ip, 10 mg/kg) is recorded as “does not”. The “arterial hypotension in experimental animals” value with mice [2] is “does not cause arterial hypotension”. In the data set with mice [3], the “toxicity to mice relative to MnHex” value is “less toxic to mice”. Further, the “toxicity / death of mice” value with mice [3] (mice, 5 mg/kg IP injection) is recorded as “no toxicity”.
